Results on one compound are retold here after patent US12678518B2, “Theranostic probe and its use for targeting and/or labeling the EGFR kinase and/or the cells expressing EGFR or its family members” (Tianjin University, priority 2019, dated 2026).

One test addresses EGFR (Homo sapiens, UniProt P00533). The test is described as follows: Inhibition of the EGF receptor kinase activity (EGFR phosphorylation, western blotting). The note with it: EGFR-transfected HEK293T cells, 10 minutes. For orientation: In western blotting, separated proteins are transferred to a membrane and probed.
The target of test [1] is T1, EGFR dimers (L834R/V924R) (Homo sapiens, UniProt P00533, L858R/V948R).
T1 construct: one encoding human EGFR(1-998) fused with a split YFP-N(1-172) fragment; the other encoding hEGFR(1-998) linked to a split YFP-C(155-238) fragment; expressed in transfected cells; host or cells: HEK 293T
The test can be described thus: Protein complementary assay (split YFP), PDCy3 binding to EGFR dimers, L834R with V924R. The conditions noted are these: V924R on top of L834R, 1 μM PDCy3. It counts as cell-based. An excerpt: (§1) Protein complementary assay. For protein complementary assay, we designed two complementary constructs: one encoding human EGFR(1-998) fused with a split YFP-N(1-172) fragment, and the other encoding hEGFR(1-998) linked to a split YFP-C(155-238) fragment. Kinase mutations were introduced on both constructs to make a complementary pair. All the constructs were verified by sequencing. The paired constructs encoding the same receptor were co-transfected into HEK 293T cells. Transfected cells were starved in EX-Cell 293 Serum-Free Medium for 44 hours before treatment with 1 μM PDCy3 for additional 4 hours. The dimerization of the EGF receptors and the binding of dimerized receptors to PDCy3 were analyzed by flowcytometry.
(§2) To further investigate how EGFR kinase dimerization affects PDCy3 binding, we did a protein complementary assay. In the assay, split YFP fragments were individually fused to the C-terminus of the full length EGFR, and EGF kinase dimerization was reported by the fluorescence of assembled YPF from co-transfected receptors (FIG. 4A)^23. As shown in the FIG. 4B, the cells with co-expressed EGFR dimers could be divided into two populations. In one population, the quantity of bound PDCy3 increased linearly as a function of the expression levels of EGFR dimers (FIG. 4C). But in the other population, the quantity of bound PDCy3 was independent of the expressed EGFR dimers. […]

For the next test, the target named is T2, EGFR dimers (wild type) (Homo sapiens, UniProt P00533).
T2 construct: one encoding human EGFR(1-998) fused with a split YFP-N(1-172) fragment; the other encoding hEGFR(1-998) linked to a split YFP-C(155-238) fragment; expressed in transfected cells; host or cells: HEK 293T
The test is described as follows: Protein complementary assay (split YFP), PDCy3 binding to EGFR dimers, wild type. The class given is cell-based. The note with it: wild type receptor pair, 1 μM PDCy3.
From the text: as §1, §2

The next test addresses T3, EGFR L834R (Homo sapiens, UniProt P00533, L858R).
T3 construct: plasmids encoding human EGFR (1-988) and split YFP fragments; expressed in transfected cells; host or cells: HEK 293T
The test is described as follows: Flowcytometry of PDCy3 binding to cells expressing EGFR L834R mutant. The class given is cell-based. The note with it: L834R mutation, 1 μM PDCy3. The method, then: Cell sorting. Following starvation in EX-Cell 293 Serum-Free Medium for 44 hours, transfected cells were treated with gefitinib, PDCy3, or EGF for 4 hours at 37° C. Then, the cells were washed twice with 500 μl/well ice-cold PBS, and were re-suspended in 400 μl/well PBS. The final cell density was estimated to be 5×10^5˜1×10^6 cells/ml. To detect EGFR expression, 3 μd anti-EGFR 528 antibody (santa cruz biotechnology inc, USA) at 200 μg/ml concentration was added to each well of re-suspended cells. After 30-minute incubation on ice, cells were washed twice with 500 μl/well PBS, and were re-suspended in […]. Then, 0.3 μl FITC-labelled secondary antibody at a concentration of 2 mg/ml was added to each sample. After incubation on ice for 30 minutes, cells were washed three times with PBS, re-suspended in 400 μl/well PBS, and analyzed by flowcytometry using a BD FACS Calibur machine.
Cell sorting. Following starvation in EX-Cell 293 Serum-Free Medium for 44 hours, transfected cells were treated with gefitinib, PDCy3, or EGF for 4 hours at 37° C. Then, the cells were washed twice with 500 μL/well ice-cold PBS, and were re-suspended in 400 μL/well PBS. The final cell density was estimated to be 5×10^5˜1×10^6 cells/mL. […] After incubation on ice for 30 minutes, cells were washed three times with PBS, re-suspended in 400 μL/well PBS, and analyzed by floweytometry using a BD FACS Calibur machine.

Structures are written as SMILES.

As for `CN1/C(=C/C=C/C2=[N+](CCCCCC(=O)NCCC/C=C/C(=O)Nc3ccc4ncnc(Nc5cccc(Br)c5)c4c3)c3ccc(S(=O)(=O)O)cc3C2(C)C)C(C)(C)c2cc(S(=O)(=O)[O-])ccc21` [PDCy3, 1-(6-((E)-6-(4-(3-bromophenylamino)quinazolin-6-ylamino)-6-oxohex-4-enylamino)-6-oxohexyl)-3,3-dimethyl-2-((1E,3E)-3-(1,3,3-trimethyl-5-sulfonatoindolin-2-ylidene)prop-1-enyl)-3H-indolium-5-sulfonate], at EGFR (presence and absence of 10 nM EGF, western blotting), the “concentration at which EGFR kinase activity was completely inhibited” value worked out at 20 µM. In addition, the “inhibition of EGFR kinase activity (in words)” value at EGFR (different concentrations) is listed as “inhibit the kinase activity of EGFR in a dose dependent manner”. Further, the “fraction of the population with the higher sensitivity to PDCy3 (population A)” value is 49.2% in test [1] and 38.4% on EGFR dimers (wild type). Also, the “population (fraction) of PDCy3-bound, EGFR positive cells” value at EGFR L834R came to 65.9%.
